We go through 9 compounds from PMC2933939 (Bioorganic & medicinal chemistry, 2010).

Structures are written as SMILES. Where two headings read alike, the source gives them in different places. Non-standard residues stand in square brackets, D forms with d. Residues, ends and D or L forms follow the SMILES beside them. *: point of attachment. dNMeF = CN[C@H](Cc1ccccc1)C(=O)O; Cha = N[C@@H](CC1CCCCC1)C(=O)O; NMeK = CN[C@@H](CCCCN)C(=O)O; dNMeK = CN[C@H](CCCCN)C(=O)O; ClZ = O=C(OCc1ccccc1Cl)*; Bn = c1ccc(C*)cc1

The test system of one series is colon cancers. The following applies: drug of choice for colon cancer treatment; no reference given; cited from earlier work.
Series [1] concerns HCT-116 colon cancer cells. Put plainly: 3H-thymidine uptake cytotoxicity assay. Type of series: cell-based.

One may read the IC50 as the concentration needed to halve the response being measured. In the case of `O=c1[nH]cc(F)c(=O)[nH]1` [Compound 5-FU, 5-fluorouracil], in the series with colon cancers, the IC50 was 5 µM. As usually defined, the half-life is the time needed for the level to fall by half in the phase considered. Low readings indicate rapid decline, high ones slow decline. On to `CC(C)[C@H]1NC(=O)[C@@H](Cc2ccccc2)N(C)C(=O)[C@H](Cc2ccccc2)NC(=O)[C@H](COCc2ccccc2)NC(=O)[C@H](CC2CCCCC2)NC1=O` [Compound 19, Phe-N-Me-D-Phe-D-Val-Cha-Ser(Bn)] (cyclo([Cha]S(Bn)F[dNMeF][dV])), for which the half-life by setting is: (Half-life (minutes) n1, n1) 45 min; (Half-life (minutes) n2, n2) 30 min. For `CC(C)[C@H]1NC(=O)[C@@H](Cc2ccccc2)NC(=O)[C@H](Cc2ccccc2)NC(=O)[C@H](COCc2ccccc2)NC(=O)[C@H](CC2CCCCC2)NC1=O` [Compound 20, Phe-D-Phe-D-Val-Cha-Ser(Bn)] (cyclo([Cha]S(Bn)F[dF][dV])), in series [1], the “cytotoxicity (in words)” value is “little cytotoxic activity”. The same measure, in the same setting: next, `CC(C)C[C@@H]1NC(=O)[C@H](C(C)C)NC(=O)[C@@H](Cc2ccccc2)N(C)C(=O)[C@H](Cc2ccccc2)NC(=O)[C@H](CCCCN)NC1=O` [Compound 30, Phe-N-Me-D-Phe-Val-Leu-Lys] (cyclo(F[dNMeF]VLK)): “not active”. On the same count and under the same terms, next, `CC(C)C[C@@H]1NC(=O)[C@H](Cc2ccccc2)NC(=O)[C@H](CCCCN)NC(=O)[C@H](CC(C)C)NC(=O)[C@H](C(C)C)NC1=O` [Compound 32, Phe-Leu-Val-Leu-Lys] (cyclo(FLVLK)): “inactive”. The same measure, in the same setting: under `CC(C)C[C@@H]1NC(=O)[C@H](Cc2ccccc2)NC(=O)[C@H](CCCCN)N(C)C(=O)[C@H](CC(C)C)NC(=O)[C@H](C(C)C)NC1=O` [Compound 35, Phe-Leu-Val-Leu-N-Me-Lys] (cyclo(FLVL[NMeK])) stands “inactive”; under `CC(C)C[C@@H]1NC(=O)[C@H](Cc2ccccc2)NC(=O)[C@H](CCCCN)NC(=O)[C@H](CC(C)C)NC(=O)[C@@H](C(C)C)NC1=O` [Compound 37, Phe-Leu-D-Val-Leu-Lys] (cyclo(FL[dV]LK)), “inactive”; under `CC(C)C[C@@H]1NC(=O)[C@H](Cc2ccccc2)NC(=O)[C@@H](Cc2ccccc2)NC(=O)[C@@H](CCCCNC(=O)OCc2ccccc2Cl)N(C)C(=O)[C@H](C(C)C)NC1=O` [Compound 41, Phe-Leu-Val-N-Me-D-Lys(Cl-Cbz)-D-Phe] (cyclo(FLV[dNMeK](ClZ)[dF])), “not very potent at all”. On to `CC(C)C[C@@H]1NC(=O)[C@H](Cc2ccccc2)NC(=O)[C@@H](Cc2ccccc2)N(C)C(=O)[C@@H](CCCCNC(=O)OCc2ccccc2Cl)NC(=O)[C@H](C(C)C)NC1=O` [Compound 42, Phe-Leu-Val-D-Lys(Cl-Cbz)-N-Me-D-Phe] (cyclo(FLV[dK](ClZ)[dNMeF])), for which the “cytotoxicity (in words)” value in series [1] is listed as “remarkable cytotoxicity”.
